According to US20230295119A1, “SUBSTITUTED PYRIDINES FOR THE TREATMENT OF INFLAMMATORY DISEASES” (GOSSAMER BIO SERVICES, INC., priority 2020, published 2023):

Legend:
human JAK3 = human JAK3 (Homo sapiens (Human), UniProt P52333); experiment: JAK3 TR-FRET kinase assay; assay type: biochemical; conditions: JAK3 0.0125 nM
human JAK2 = human JAK2 (Homo sapiens (Human), UniProt O60674); experiment: JAK2 TR-FRET kinase assay; assay type: biochemical; conditions: JAK2 0.025 nM
human JAK1 = human JAK1 (Homo sapiens (Human), UniProt P23458); experiment: JAK1 TR-FRET kinase assay; assay type: biochemical; conditions: TR-FRET, JAK1 2.5 nM
TYK2 JH2 domain = TYK2 JH2 domain (Homo sapiens (Human), UniProt P29597); experiment: TYK2 JH2 NanoBRET assay; assay type: binding; conditions: Table 20, read-out: TYK2 IC50
Summary of the method: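 HEK293T cells transiently expressing NanoLuc-TYK2 JH2 fusion, incubated 2 h with compound and NanoBRET K10 tracer (0.5 µM final). Target engagement read as acceptor/donor BRET ratio after Nano-Glo substrate plus extracellular NanoLuc inhibitor.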

TYK2 JH2 domain, sequence (P29597 589-875): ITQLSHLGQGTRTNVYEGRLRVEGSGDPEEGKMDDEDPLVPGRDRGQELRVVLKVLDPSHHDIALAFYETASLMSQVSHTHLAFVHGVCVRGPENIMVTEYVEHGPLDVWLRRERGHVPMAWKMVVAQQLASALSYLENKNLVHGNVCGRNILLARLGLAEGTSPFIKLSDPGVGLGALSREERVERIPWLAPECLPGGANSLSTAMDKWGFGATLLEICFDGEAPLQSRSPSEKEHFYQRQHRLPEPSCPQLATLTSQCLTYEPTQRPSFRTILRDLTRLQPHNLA
human JAK1, sequence (P23458 whole entry, the tested form may be a part): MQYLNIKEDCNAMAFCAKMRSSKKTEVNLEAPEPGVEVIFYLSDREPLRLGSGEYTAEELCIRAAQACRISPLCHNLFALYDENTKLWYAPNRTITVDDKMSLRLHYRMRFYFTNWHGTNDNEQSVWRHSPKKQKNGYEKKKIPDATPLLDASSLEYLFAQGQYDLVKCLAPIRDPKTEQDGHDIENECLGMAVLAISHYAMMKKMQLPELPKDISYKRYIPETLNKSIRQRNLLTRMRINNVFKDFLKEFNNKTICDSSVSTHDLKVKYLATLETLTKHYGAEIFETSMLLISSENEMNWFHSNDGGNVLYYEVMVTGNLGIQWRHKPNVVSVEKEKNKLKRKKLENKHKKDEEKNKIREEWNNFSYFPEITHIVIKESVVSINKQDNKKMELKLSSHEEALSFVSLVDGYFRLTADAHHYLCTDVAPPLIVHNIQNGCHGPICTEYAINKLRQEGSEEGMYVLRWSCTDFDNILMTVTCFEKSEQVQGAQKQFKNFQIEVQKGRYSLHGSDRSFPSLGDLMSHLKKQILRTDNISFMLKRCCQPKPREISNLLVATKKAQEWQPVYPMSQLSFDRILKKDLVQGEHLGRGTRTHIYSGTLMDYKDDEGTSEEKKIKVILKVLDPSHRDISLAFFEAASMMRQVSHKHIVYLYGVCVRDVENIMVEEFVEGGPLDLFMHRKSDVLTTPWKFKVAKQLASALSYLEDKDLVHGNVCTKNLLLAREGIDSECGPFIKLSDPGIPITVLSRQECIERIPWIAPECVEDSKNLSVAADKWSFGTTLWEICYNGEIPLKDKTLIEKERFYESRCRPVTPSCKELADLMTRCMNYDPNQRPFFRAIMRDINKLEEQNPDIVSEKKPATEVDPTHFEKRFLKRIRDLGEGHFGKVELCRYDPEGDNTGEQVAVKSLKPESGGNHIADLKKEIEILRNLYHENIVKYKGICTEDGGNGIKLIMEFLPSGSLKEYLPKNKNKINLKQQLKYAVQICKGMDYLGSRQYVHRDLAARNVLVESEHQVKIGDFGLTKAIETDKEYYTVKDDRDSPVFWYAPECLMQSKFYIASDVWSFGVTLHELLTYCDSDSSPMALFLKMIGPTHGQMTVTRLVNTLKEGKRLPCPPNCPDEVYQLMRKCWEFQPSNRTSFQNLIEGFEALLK
human JAK3, sequence (P52333 whole entry): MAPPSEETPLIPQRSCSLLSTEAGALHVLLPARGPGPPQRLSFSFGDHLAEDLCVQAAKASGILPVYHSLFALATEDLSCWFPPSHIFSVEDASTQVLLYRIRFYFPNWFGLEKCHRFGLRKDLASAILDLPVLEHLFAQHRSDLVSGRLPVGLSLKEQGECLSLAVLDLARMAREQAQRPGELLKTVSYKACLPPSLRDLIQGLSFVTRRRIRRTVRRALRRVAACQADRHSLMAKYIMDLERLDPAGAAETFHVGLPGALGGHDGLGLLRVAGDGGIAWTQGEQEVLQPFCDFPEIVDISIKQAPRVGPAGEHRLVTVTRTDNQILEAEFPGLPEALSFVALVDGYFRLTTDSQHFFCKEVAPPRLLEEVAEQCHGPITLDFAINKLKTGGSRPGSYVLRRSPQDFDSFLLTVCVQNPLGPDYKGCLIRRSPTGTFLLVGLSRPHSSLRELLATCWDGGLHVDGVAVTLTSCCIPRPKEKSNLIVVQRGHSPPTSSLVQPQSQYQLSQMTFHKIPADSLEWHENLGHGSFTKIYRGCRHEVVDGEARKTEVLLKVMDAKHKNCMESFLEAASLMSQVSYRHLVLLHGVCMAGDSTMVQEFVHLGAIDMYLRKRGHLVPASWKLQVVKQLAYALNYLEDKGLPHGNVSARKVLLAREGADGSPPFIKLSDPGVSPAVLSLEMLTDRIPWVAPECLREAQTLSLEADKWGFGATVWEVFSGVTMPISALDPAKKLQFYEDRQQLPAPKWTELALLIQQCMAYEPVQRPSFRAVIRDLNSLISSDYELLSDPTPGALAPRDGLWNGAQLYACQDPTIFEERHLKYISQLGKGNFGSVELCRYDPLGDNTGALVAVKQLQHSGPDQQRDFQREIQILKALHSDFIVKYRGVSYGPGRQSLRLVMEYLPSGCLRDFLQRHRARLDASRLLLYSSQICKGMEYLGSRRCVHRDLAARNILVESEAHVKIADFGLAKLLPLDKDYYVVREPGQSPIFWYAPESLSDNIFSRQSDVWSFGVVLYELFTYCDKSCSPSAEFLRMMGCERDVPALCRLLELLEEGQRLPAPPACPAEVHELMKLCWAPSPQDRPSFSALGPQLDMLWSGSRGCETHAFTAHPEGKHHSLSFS
human JAK2, sequence (O60674 whole entry): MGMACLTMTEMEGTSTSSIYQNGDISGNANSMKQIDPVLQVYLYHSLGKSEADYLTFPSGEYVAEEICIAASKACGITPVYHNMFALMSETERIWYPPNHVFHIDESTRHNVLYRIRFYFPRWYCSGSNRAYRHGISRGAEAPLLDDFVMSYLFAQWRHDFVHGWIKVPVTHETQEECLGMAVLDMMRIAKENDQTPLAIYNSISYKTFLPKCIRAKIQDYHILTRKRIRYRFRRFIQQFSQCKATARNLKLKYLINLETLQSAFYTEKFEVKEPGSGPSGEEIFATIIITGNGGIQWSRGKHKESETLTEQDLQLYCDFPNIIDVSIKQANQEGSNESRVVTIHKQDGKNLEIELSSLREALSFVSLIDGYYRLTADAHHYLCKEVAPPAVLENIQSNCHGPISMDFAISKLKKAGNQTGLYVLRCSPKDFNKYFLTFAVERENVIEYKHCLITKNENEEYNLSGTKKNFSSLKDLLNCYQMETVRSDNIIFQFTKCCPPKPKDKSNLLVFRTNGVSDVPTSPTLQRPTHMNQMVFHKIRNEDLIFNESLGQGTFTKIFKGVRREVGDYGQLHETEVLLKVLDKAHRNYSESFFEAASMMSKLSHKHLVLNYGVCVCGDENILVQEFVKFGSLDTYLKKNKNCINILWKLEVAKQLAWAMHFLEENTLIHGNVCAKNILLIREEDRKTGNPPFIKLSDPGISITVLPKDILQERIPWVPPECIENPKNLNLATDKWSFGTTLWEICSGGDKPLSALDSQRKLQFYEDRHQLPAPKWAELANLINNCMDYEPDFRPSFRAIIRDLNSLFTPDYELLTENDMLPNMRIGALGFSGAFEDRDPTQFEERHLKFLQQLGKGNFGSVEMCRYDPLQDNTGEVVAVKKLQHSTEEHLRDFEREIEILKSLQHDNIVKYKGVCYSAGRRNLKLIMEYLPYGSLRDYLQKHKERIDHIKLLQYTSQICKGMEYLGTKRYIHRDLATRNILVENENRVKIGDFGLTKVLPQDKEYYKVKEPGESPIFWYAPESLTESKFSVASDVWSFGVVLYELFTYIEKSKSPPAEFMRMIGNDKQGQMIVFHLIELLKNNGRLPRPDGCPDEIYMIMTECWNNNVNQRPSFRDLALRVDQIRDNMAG

SMILES	IC50 (human JAK3)	IC50 (human JAK2)	IC50 (human JAK1)	IC50 (TYK2 JH2 domain)
CCC(=O)c1cnc(Nc2nc(CN3CCCC3)ns2)cc1Nc1cccc(-c2ncn(C)n2)c1OC [Compound 21H]	≥ 500 nM	≥ 500 nM	≥ 500 nM	50 to 500 nM
CCC(=O)c1cnc(Nc2cc3c(cn2)B(O)OC3)cc1Nc1cccc(-c2ncn(C)n2)c1OC [Compound 15CC]	≥ 500 nM	≥ 500 nM	≥ 500 nM	< 5 nM
CCC(=O)c1cnc(NC(=O)[C@@H]2C[C@@H]2C(N)=O)cc1Nc1cccc(-c2ncn(C)n2)c1OC [Compound 22G]	≥ 500 nM	≥ 500 nM	≥ 500 nM	≥ 500 nM
CCC(=O)c1cnc(Nc2ccc(C(=O)O)cn2)cc1Nc1cccc(-c2ncn(C)n2)c1OC [Compound 8B]	≥ 500 nM	≥ 500 nM	≥ 500 nM	50 to 500 nM
CCC(=O)c1cnc(Nc2ccc(C3(S(C)(=O)=O)CC3)nn2)cc1Nc1cccc(-c2ncn(C)n2)c1OC [Compound 13V]	≥ 500 nM	≥ 500 nM	≥ 500 nM	< 5 nM
CCC(=O)c1cnc(Nc2ccc(OCCN3CCCC3)nn2)cc1Nc1cccc(-c2ncn(C)n2)c1OC [Compound 18CC]	≥ 500 nM	≥ 500 nM	≥ 500 nM	< 5 nM
CCC(=O)c1cnc(Nc2ccc(OC3CN(C)C3)nn2)cc1Nc1cccc(-c2ncn(C)n2)c1OC [Compound 18DDDD]	≥ 500 nM	≥ 500 nM	≥ 500 nM	5 to 50 nM
CCC(=O)c1cnc(Nc2cnc(OCCn3ccnc3C)cn2)cc1Nc1cccc(-c2ncn(C)n2)c1OC [Compound 18III]	≥ 500 nM	≥ 500 nM	≥ 500 nM	5 to 50 nM
CCC(=O)c1cnc(Nc2ccn(CC3CN(C)C3)n2)cc1Nc1cccc(-c2ncn(C)n2)c1OC [Compound 21X]	≥ 500 nM	≥ 500 nM	≥ 500 nM	50 to 500 nM
COc1c(-c2ncn(C)n2)ccnc1Nc1cc(Nc2ccc(-c3ncn(C)n3)cn2)ncc1C(=O)C1CC1 [Compound 15O]	≥ 500 nM	≥ 500 nM	≥ 500 nM	5 to 50 nM
CCC(=O)c1cnc(Nc2ccc(C3(N)CC3)cn2)cc1Nc1cccc(-c2ncn(C)n2)c1OC [Compound 9O]	≥ 500 nM	≥ 500 nM	≥ 500 nM	< 5 nM
CCC(=O)c1cnc(Nc2ccc(CS(C)(=N)=O)cn2)cc1Nc1cccc(-c2ncn(C)n2)c1OC (stereo not shown) [Compound 13F]	≥ 500 nM	≥ 500 nM	≥ 500 nM	5 to 50 nM
CCC(=O)c1cnc(NC(=O)C2CC2)cc1Nc1cc(F)cc(-c2ncn(C)n2)c1OC [Compound 25A, N-(4-((5-fluoro-2-methoxy-3-(1-methyl-1H-1,2,4-triazol-3-yl)phenyl)amino)-5-propionylpyridin-2-yl)cyclopropanecarboxamide]	≥ 500 nM	≥ 500 nM	≥ 500 nM	5 to 50 nM
CCC(=O)c1cnc(Nc2ccc(C(=O)NC)cn2)cc1Nc1cccc(-c2ncn(C)n2)c1OC [Compound 8C]	≥ 500 nM	≥ 500 nM	≥ 500 nM	< 5 nM
CCC(=O)c1cnc(Nc2ccc(-c3ccc[nH]c3=O)cn2)cc1Nc1cccc(-c2ncn(C)n2)c1OC [Compound 15W]	50 to 500 nM	50 to 500 nM	≥ 500 nM	5 to 50 nM
CCC(=O)c1cnc(Nc2ccc(CN(C)C)nn2)cc1Nc1cccc(-c2ncn(C)n2)c1OC [Compound 9HHH]	≥ 500 nM	≥ 500 nM	≥ 500 nM	5 to 50 nM
CCC(=O)c1cnc(Nc2ccc(O[C@@H]3CCN(C)C3)cn2)cc1Nc1cccc(-c2ncn(C)n2)c1OC [Compound 18V]	50 to 500 nM	≥ 500 nM	≥ 500 nM	< 5 nM
CCC(=O)c1cnc(Nc2ncc(CN3CCCC3)cc2F)cc1Nc1cccc(-c2ncn(C)n2)c1OC [Compound 9CCCC]	≥ 500 nM	≥ 500 nM	≥ 500 nM	5 to 50 nM
CCC(=O)c1cnc(Nc2ccc([C@H](C)N3CC(O)C3)cn2)cc1Nc1cccc(-c2ncn(C)n2)c1OC [Compound 9GG]	≥ 500 nM	≥ 500 nM	≥ 500 nM	5 to 50 nM
COc1c(Nc2cc(Nc3ccc(CS(C)(=O)=O)cn3)ncc2C(=O)C2CC2)cccc1-c1ncn(C)n1 [Compound 130]	≥ 500 nM	≥ 500 nM	≥ 500 nM	< 5 nM
CCC(=O)c1cnc(Nc2cnc(OCCO)cn2)cc1Nc1cccc(-c2ncn(C)n2)c1OC [Compound 18P]	≥ 500 nM	≥ 500 nM	≥ 500 nM	5 to 50 nM
CCC(=O)c1cnc(Nc2ccc(C(N)C(F)(F)F)cn2)cc1Nc1cccc(-c2ncn(C)n2)c1OC (stereo not shown) [Compound 9CC]	≥ 500 nM	≥ 500 nM	≥ 500 nM	< 5 nM
